{"source": "ChEMBL document CHEMBL1132675", "about": "“New pyrrole derivatives as antimycobacterial agents analogs of BM212” (1999)", "key": {"Mycobacterium marinum": {"tested_on": "Mycobacterium marinum", "experiment": "In vitro antibacterial activity against Mycobacterium marinum 6423", "assay_type": "functional"}, "Mycobacterium avium": {"tested_on": "Mycobacterium avium", "experiment": "In vitro antibacterial activity against Mycobacterium avium 103317", "assay_type": "functional"}, "Mycobacterium gordonae [1]": {"tested_on": "Mycobacterium gordonae", "experiment": "In vitro antibacterial activity against Mycobacterium gordonae 6427", "assay_type": "functional"}, "[2]": {"tested_on": "Mycolicibacterium smegmatis", "experiment": "In vitro antibacterial activity against Mycobacterium smegmatis 103599", "assay_type": "functional"}, "[3]": {"tested_on": "Mycobacterium tuberculosis", "experiment": "In vitro antibacterial activity against Mycobacterium tuberculosis 103471", "assay_type": "functional"}, "Vero": {"tested_on": "Vero", "experiment": "In vitro cytotoxicity against vero cells", "assay_type": "functional, Chlorocebus sabaeus"}, "Candida": {"tested_on": "Candida", "experiment": "Compound was tested for activity against Candida sp; Inactive", "assay_type": "functional, organism-based"}, "Candida albicans": {"tested_on": "Candida albicans", "experiment": "Compound was tested for activity against Candida albicans; Inactive", "assay_type": "functional, organism-based"}, "Mycobacterium gordonae [4]": {"tested_on": "Mycobacterium gordonae", "experiment": "In vitro antibacterial activity agains Mycobacterium gordonae 6427", "assay_type": "functional"}}, "note": "The source made the active and inactive calls. No cut-off for these calls is given here.", "data": [{"compound": "CO[C@H]1/C=C/O[C@@]2(C)Oc3c(C)c(O)c4c(O)c(c(/C=N/N5CCN(C)CC5)c(O)c4c3C2=O)NC(=O)/C(C)=C\\C=C\\[C@H](C)[C@H](O)[C@@H](C)[C@@H](O)[C@@H](C)[C@H](OC(C)=O)[C@@H]1C", "note": "[RIFAMPIN]", "values": [{"measurement": "MIC", "setting": "Mycobacterium marinum", "value": 0.6, "unit": "µg/mL"}, {"measurement": "MIC", "setting": "Mycobacterium avium", "value": 0.3, "unit": "µg/mL"}, {"measurement": "MIC", "setting": "Mycobacterium gordonae [1]", "value": 0.6, "unit": "µg/mL"}, {"measurement": "MIC", "setting": "[2]", "value": 32, "unit": "µg/mL"}, {"measurement": "MIC", "setting": "[3]", "value": 0.3, "unit": "µg/mL"}, {"measurement": "MTD50", "setting": "Vero", "value": 64, "unit": "µg/mL"}]}, {"compound": "Cc1c(CN2CCSCC2)cc(-c2ccc(Cl)cc2)n1-c1ccccc1", "values": [{"measurement": "MIC", "setting": "Mycobacterium marinum", "value": "> 16", "unit": "µg/mL"}, {"measurement": "MIC", "setting": "Mycobacterium avium", "value": "> 16", "unit": "µg/mL"}, {"measurement": "MIC", "setting": "Candida", "value": "inactive"}, {"measurement": "MIC", "setting": "Mycobacterium gordonae [1]", "value": "> 16", "unit": "µg/mL"}, {"measurement": "MIC", "setting": "[2]", "value": "> 16", "unit": "µg/mL"}, {"measurement": "MIC", "setting": "[3]", "value": 2, "unit": "µg/mL"}, {"measurement": "MIC", "setting": "Candida albicans", "value": "inactive"}, {"measurement": "MTD50", "setting": "Vero", "value": 4, "unit": "µg/mL"}]}, {"compound": "Cc1c(CN2CCN(C)CC2)cc(-c2ccc(Cl)cc2)n1-c1ccc(Cl)cc1", "values": [{"measurement": "MIC", "setting": "Mycobacterium marinum", "value": 100, "unit": "µg/mL"}, {"measurement": "MIC", "setting": "Mycobacterium avium", "value": 0.4, "unit": "µg/mL"}, {"measurement": "MIC", "setting": "[2]", "value": 25, "unit": "µg/mL"}, {"measurement": "MIC", "setting": "[3]", "value": 0.7, "unit": "µg/mL"}, {"measurement": "MTD50", "setting": "Vero", "value": 4, "unit": "µg/mL"}, {"measurement": "MIC", "setting": "Mycobacterium gordonae [4]", "value": "> 100", "unit": "µg/mL"}]}, {"compound": "Cc1c(CN2CCN(C)CC2)cc(-c2ccccc2)n1-c1ccc(Cl)cc1", "values": [{"measurement": "MIC", "setting": "Mycobacterium marinum", "value": 1, "unit": "µg/mL"}, {"measurement": "MIC", "setting": "Mycobacterium avium", "value": 16, "unit": "µg/mL"}, {"measurement": "MIC", "setting": "Candida", "value": "inactive"}, {"measurement": "MIC", "setting": "Mycobacterium gordonae [1]", "value": 8, "unit": "µg/mL"}, {"measurement": "MIC", "setting": "[2]", "value": 8, "unit": "µg/mL"}, {"measurement": "MIC", "setting": "[3]", "value": 4, "unit": "µg/mL"}, {"measurement": "MIC", "setting": "Candida albicans", "value": "inactive"}, {"measurement": "MTD50", "setting": "Vero", "value": 4, "unit": "µg/mL"}]}, {"compound": "Cc1c(CN2CCSCC2)cc(-c2ccc(Cl)cc2)n1-c1ccc(Cl)cc1", "values": [{"measurement": "MIC", "setting": "Mycobacterium marinum", "value": "> 16", "unit": "µg/mL"}, {"measurement": "MIC", "setting": "Mycobacterium avium", "value": "> 16", "unit": "µg/mL"}, {"measurement": "MIC", "setting": "Candida", "value": "inactive"}, {"measurement": "MIC", "setting": "Mycobacterium gordonae [1]", "value": "> 16", "unit": "µg/mL"}, {"measurement": "MIC", "setting": "[2]", "value": "> 16", "unit": "µg/mL"}, {"measurement": "MIC", "setting": "[3]", "value": 4, "unit": "µg/mL"}, {"measurement": "MIC", "setting": "Candida albicans", "value": "inactive"}, {"measurement": "MTD50", "setting": "Vero", "value": 32, "unit": "µg/mL"}]}, {"compound": "CN[C@@H]1[C@H](O[C@H]2[C@H](O[C@H]3[C@H](O)[C@@H](O)[C@H](N=C(N)N)[C@@H](O)[C@@H]3N=C(N)N)O[C@@H](C)[C@]2(O)C=O)O[C@@H](CO)[C@H](O)[C@H]1O", "note": "[STREPTOMYCIN]", "values": [{"measurement": "MIC", "setting": "Mycobacterium marinum", "value": 32, "unit": "µg/mL"}, {"measurement": "MIC", "setting": "Mycobacterium avium", "value": 8, "unit": "µg/mL"}, {"measurement": "MIC", "setting": "Mycobacterium gordonae [1]", "value": 16, "unit": "µg/mL"}, {"measurement": "MIC", "setting": "[2]", "value": 8, "unit": "µg/mL"}, {"measurement": "MIC", "setting": "[3]", "value": 0.5, "unit": "µg/mL"}, {"measurement": "MTD50", "setting": "Vero", "value": ">64", "unit": "µg/mL"}]}, {"compound": "Cc1c(CN2CCSCC2)cc(-c2ccccc2)n1-c1ccc(Cl)cc1", "values": [{"measurement": "MIC", "setting": "Mycobacterium marinum", "value": 8, "unit": "µg/mL"}, {"measurement": "MIC", "setting": "Mycobacterium avium", "value": 16, "unit": "µg/mL"}, {"measurement": "MIC", "setting": "Candida", "value": "inactive"}, {"measurement": "MIC", "setting": "Mycobacterium gordonae [1]", "value": "> 16", "unit": "µg/mL"}, {"measurement": "MIC", "setting": "[2]", "value": 16, "unit": "µg/mL"}, {"measurement": "MIC", "setting": "[3]", "value": 2, "unit": "µg/mL"}, {"measurement": "MIC", "setting": "Candida albicans", "value": "inactive"}, {"measurement": "MTD50", "setting": "Vero", "value": 8, "unit": "µg/mL"}]}, {"compound": "NNC(=O)c1ccncc1", "note": "[ISONIAZID]", "values": [{"measurement": "MIC", "setting": "Mycobacterium marinum", "value": 16, "unit": "µg/mL"}, {"measurement": "MIC", "setting": "Mycobacterium avium", "value": 32, "unit": "µg/mL"}, {"measurement": "MIC", "setting": "Mycobacterium gordonae [1]", "value": 32, "unit": "µg/mL"}, {"measurement": "MIC", "setting": "[2]", "value": 64, "unit": "µg/mL"}, {"measurement": "MIC", "setting": "[3]", "value": 0.25, "unit": "µg/mL"}, {"measurement": "MTD50", "setting": "Vero", "value": 32, "unit": "µg/mL"}]}, {"compound": "Cc1c(CN2CCN(C)CC2)cc(-c2ccc(Cl)cc2)n1-c1ccccc1", "values": [{"measurement": "MIC", "setting": "Mycobacterium marinum", "value": 16, "unit": "µg/mL"}, {"measurement": "MIC", "setting": "Mycobacterium avium", "value": 16, "unit": "µg/mL"}, {"measurement": "MIC", "setting": "Candida", "value": "inactive"}, {"measurement": "MIC", "setting": "Mycobacterium gordonae [1]", "value": 16, "unit": "µg/mL"}, {"measurement": "MIC", "setting": "[2]", "value": 8, "unit": "µg/mL"}, {"measurement": "MIC", "setting": "[3]", "value": 4, "unit": "µg/mL"}, {"measurement": "MIC", "setting": "Candida albicans", "value": "inactive"}, {"measurement": "MTD50", "setting": "Vero", "value": 4, "unit": "µg/mL"}]}]}
